Test system: AQ production in P. aeruginosa laboratory strains and CF isolates
Test: Alkyl quinolone (AQ: HHQ, PQS, HQNO) quantification by LC-MS/MS
Format: cell-based, Pseudomonas aeruginosa
Excerpt: PqsR directly regulates the biosynthesis of diverse AQs, of which HHQ and PQS act as QS molecules, while others such as 2-heptyl- 4-hydroxyquinoline N-oxide (HQNO) are potent cytochrome bc1 inhibitors that contribute to the environmental competitiveness of this pathogen.[9],[28] Previous studies have shown that PQS is a multifunctional iron chelator acting via PqsR-dependent and PqsR-independent pathways, contributing directly to iron acquisition and microvesicle formation.[29] […] PqsR inhibition reduces production of AQ, which can be quantified to serve as a direct readout for pqs system inhibition.[9] To this end, 6f was incubated with various P. aeruginosa laboratory strains and CF isolates and its impact on AQ production determined quantitatively using LCMS/MS and compared with untreated samples.
For each test sample, 100 μL of sterile filtered supernatant was spiked with 10 μL of an internal standard solution (10 μM d4-PQS in MeOH) and diluted with water to a total volume of 500 μL. Samples were then extracted three times with an 0.5 mL aliquot of ethyl acetate, vortex mixing the aqueous/organic mix for 2 min, then removing the organic phase once the layers had successfully partitioned. For each sample, the combined organic extracts were dried under vacuum and redissolved in 100 μL of MeOH prior to analysis. For the LC-MS/MS analysis of supernatant extracts, the chromatography was achieved using a Shimadzu series 10AD VP LC system (Columbia, MD, USA). The LC column, maintained at 40 °C, was a Phenomenex Gemini C18 (3.0 μm, 100 mm × 3.0 mm) (Macclesfield, Cheshire, UK) with an appropriate guard column. Mobile phase A was 0.1% (v/v) formic acid in water containing 2 mM 2-picolinic acid, and mobile phase B 0.1% (v/v) formic acid in methanol. The flow rate throughout the chromatographic separation was 450 μL/min. After an injection of a 2 μL/sample, a binary gradient, beginning initially at 30% B, increased linearly to 99% B over 5 min. The composition remained at 99% B for 3 min, decreased to 30% B over 1 min, and stayed at this composition for 4 min, to allow for column equilibration. The MS system used for analyte detection was an Applied Biosystems Qtrap 4000 hybrid triple-quadrupole linear ion trap mass spectrometer (Foster City, CA, USA), equipped with an electrospray ionization (ESI) interface. Instrument control, data collection, and analysis were conducted using Analyst software (Foster City, CA, USA). […] Where chromatographic peaks for HHQ, HQNO, and PQS were detected, a peak area was determined, and analyte peak area/internal standard peak area calcdulated.

Q: Which “HHQ and PQS levels” value (0.2 μM 6f, IPCD1331) does the source give for `CC(C)n1c(NCC(O)COc2ccc(CC#N)cc2)nc2ccc(Cl)cc21` (centres unmarked) [Compound 6f, 2-(4-(3-((6-Chloro-1-isopropyl-1H-benzo[d]imidazol-2-yl)amino)-2-hydroxypropoxy)phenyl) Acetonitrile] here?
A: Its value is “no significant reduction”.

Q: And the HQNO concentrations (0.2 μM 6f, IPCD1451 CF isolate)?
A: The HQNO concentrations was “nonsignificant reduction”.

Q: And the AQ production (0.2 μM 6f, LESB58 strain)?
A: Its AQ production is “moderate but significant reduction”.

Q: What about the “HHQ and PQS levels” value (0.2 μM 6f, PAO1-L, PA14 and IPCD48 CF isolate, vs untreated) of the same compound?
A: The value was “substantially reduced”.

Q: And the inhibition at 0.2 µM (Pseudomonas aeruginosa, read-out: HQNO inhibition)?
A: Its inhibition at 0.2 µM is 20 to 60%.
